Results: patent US10513519B2, “Solid forms of (1S,4S)-4-(2-(((3S,4R)-3-fluorotetrahydro-2H-pyran-4-yl)amino)-8-((2,4,6-trichlorophenyl)amino)-9H-purin-9-yl)-1-methylcyclohexane-1-carboxamide and methods of their use” (Signal Pharmaceuticals, LLC, priority 2016, dated 2019)

System: cancer cell lines
Assay: Multiplexed cytotoxicity assay: cell proliferation (relative cell count IC50, GI50)
Format: cell-based
Procedure: (§1) Cells are grown in RPMI1640, 10% FBS, 2 mM L-alanyl-L-Glutamine, 1 mM Na pyruvate or a special medium in a humidified atmosphere of 5% CO2 at 37° C. Cells are seeded into 384-well plates and incubated in a humidified atmosphere of 5% CO2 at 37° C. Compounds are added 24 h post cell seeding. At the same time, a time zero untreated cell plate is generated. After a 72 hour incubation period, cells are fixed and stained with fluorescently labeled antibodies and nuclear dye to allow visualization of nuclei, apoptotic cells and mitotic cells. Apoptotic cells are detected using an anti-active caspase-3 antibody. Mitotic cells are detected using an anti phospho-histone-3 antibody. Compounds are serially diluted 3.16-fold and assayed over 10 concentrations in a final assay concentration of 0.1% DMSO from the highest test concentration of 10 μM. Automated fluorescence microscopy was carried out using a Molecular Devices ImageXpress Micro XL high-content imager, and images are collected with a 4× objective.
Sixteen-bit TIFF images are acquired and analyzed with MetaXpress 5.1.0.41 software. Cell proliferation is measured by the signal intensity of the incorporated nuclear dye. The cell proliferation assay output is referred to as the relative cell count. To determine the cell proliferation end point, the cell proliferation data output is transformed to percentage of control (POC) using the following formula: POC=relative cell count(compound wells)/relative cell count(vehicle wells)×100
GI50 is the concentration needed to reduce the observed growth by half. This is the concentration that inhibits the growth to the level midway between growth in untreated cells and the number of cells seeded in the well (Time zero value). The IC50 values are calculated using nonlinear regression to fit data to a sigmoidal 4 point, 4 parameter One-Site dose response model, where: y(fit)=A+[(B−A)/(1+((C/x)^D))].
as §1, with “In another experiment, cells were grown” for “Cells are grown”, “Cells were” for “Cells are”, “Compounds were” for “Compounds are”, “plate was” for “plate is”, “cells were” for “cells are”, “images were” for “images are”
Sixteen-bit TIFF images were acquired and analyzed with MetaXpress 5.1.0.41 software. Cell proliferation was measured by the signal intensity of the incorporated nuclear dye. The cell proliferation assay output was referred to as the relative cell count. To determine the cell proliferation end point, the cell proliferation data output was transformed to percentage of control (POC) using the following formula: POC=relative cell count(compound wells)/relative cell count(vehicle wells)×100
GI50 refers to the concentration needed to reduce the observed growth by half. This corresponds to the concentration that inhibits the growth to the level midway between growth in untreated cells and the number of cells seeded in the well (Time zero value). The IC50 values were calculated using nonlinear regression to fit data to a sigmoidal 4 point, 4 parameter One-Site dose response model, where: y(fit)=A+[(B−A)/(1+((C/x)^D))].

[1] = 72 h, G292CLONEA141B1, Soft Tissue, Osteosarcoma
[2] = 72 h, HOS, Soft Tissue, Osteosarcoma
[3] = 72 h, HS729, Soft Tissue, Sarcoma
[4] = 72 h, HS821T, Soft Tissue, Sarcoma
[5] = 72 h, HS888SK, Soft Tissue, Osteosarcoma
[6] = 72 h, IM9, Hematopoietic and lymphoid, Myeloma
[7] = 72 h, TE125T, Soft Tissue, Sarcoma
[8] = 72 h, U266B1, Hematopoietic and lymphoid, Myeloma
[9] = 72 h, VAESBJ, Soft Tissue, Sarcoma
[10] = BC1 (Hematopoietic and lymphoid, Lymphoma)
[11] = BCP-1, BCP1 (Hematopoietic and lymphoid, Lymphoma)
[12] = BM-1604, 72 h, BM1604, Prostate, 72 h
[13] = CEM/C1, CEMC1 (Hematopoietic and lymphoid, Leukemia)
[14] = CML-T1, CMLT1 (Hematopoietic and lymphoid, Leukemia)
[15] = D341 Med, D341MED (CNS, Medulloblastoma)
[16] = DB (Hematopoietic and lymphoid, Lymphoma)
[17] = EB2 (Hematopoietic and lymphoid, Lymphoma)
[18] = EB3 (Hematopoietic and lymphoid, Lymphoma)
[19] = EM2 (Hematopoietic and lymphoid, Leukemia)
[20] = H9 (Hematopoietic and lymphoid, Lymphoma)
[21] = HS611T (Hematopoietic and lymphoid, Lymphoma)
[22] = HT (Hematopoietic and lymphoid, Lymphoma)
[23] = HUH-6-clone5, HUH6CLONE5 (Liver)
[24] = Homo sapiens, 22Rv1, 72 h, 22RV1, Prostate, 72 h
[25] = Homo sapiens, 639-V, 639V (Bladder)
[26] = Homo sapiens, 647-V, 647V (Bladder)
[27] = Homo sapiens, 769-P, 769P (Kidney)
[28] = Homo sapiens, 786-0, 786O (Kidney)
[29] = Homo sapiens, A101D, A101D (Skin, Melanoma)
[30] = Homo sapiens, A 172, A172 (CNS, Glioma)
[31] = Homo sapiens, A204, 72 h, A204, Soft Tissue, Sarcoma, 72 h
[32] = Homo sapiens, A253, A253 (Head and Neck)
[33] = Homo sapiens, A498, A498 (Kidney)
[34] = Homo sapiens, A549, 72 h, A549, Lung, NSCLC, 72 h
[35] = Homo sapiens, A673, 72 h, A673, Soft Tissue, Sarcoma, 72 h
[36] = Homo sapiens, A704, A704 (Kidney)
[37] = Homo sapiens, A2058, A2058 (Skin, Melanoma)
[38] = Homo sapiens, A-375, A375 (Skin, Melanoma)
[39] = Homo sapiens, A-427, 72 h, A427, Lung, NSCLC, 72 h
[40] = Homo sapiens, A-431, A431 (Skin, Carcinoma)
[41] = Homo sapiens, ACHN, ACHN (Kidney)
[42] = Homo sapiens, AN3-CA, 72 h, AN3CA, Female GU, Uterus
[43] = Homo sapiens, ARH-77, 72 h, ARH77, Hematopoietic and lymphoid, Myeloma, 72 h
[44] = Homo sapiens, ASPC1, 72 h, ASPC1, Pancreas, 72 h
[45] = Homo sapiens, AU565, AU565 (Breast)
[46] = Homo sapiens, BE(2)-C, 72 h, BE2C, CNS, Neuroblastoma
[47] = Homo sapiens, BFTC-905, BFTC905 (Bladder)
[48] = Homo sapiens, BHT-101, 72 h, BHT101, Endocrine, Thyroid, 72 h
[49] = Homo sapiens, BPH-1, 72 h, BPH1, Prostate, 72 h
[50] = Homo sapiens, BT-20, BT20 (Breast)

SMILES: C[C@]1(C(N)=O)CC[C@@H](n2c(Nc3c(Cl)cc(Cl)cc3Cl)nc3cnc(N[C@@H]4CCOC[C@H]4F)nc32)CC1 [Compound 1, cis-4-[2-{[(3S,4R)-3-fluorooxan-4-yl]amino}-8-(2,4,6-trichloroanilino)-9H-purin-9-yl]-1-methylcyclohexane-1-carboxamide]
- GI50 (5637 (Bladder)): 6850 nM
- IC50 (5637 (Bladder)): 9770 nM
- GI50 (72 h, AGS, Stomach): 8.6 nM
- IC50 (72 h, AGS, Stomach): 9.8 nM
- GI50 [1]: 27.2 nM
- IC50 [1]: 49.3 nM
- GI50 [2]: 2570 nM
- IC50 [2]: 3690 nM
- GI50 (72 h, HS229T, Lung, NSCLC): 415 nM
- IC50 (72 h, HS229T, Lung, NSCLC): > 10000 nM
- GI50 [3]: 540 nM
- IC50 [3]: > 10000 nM
- GI50 [4]: 169 nM
- IC50 [4]: > 10000 nM
- GI50 [5]: 111 nM
- IC50 [5]: > 10000 nM
- GI50 [6]: 91.1 nM
- IC50 [6]: 143 nM
- GI50 (72 h, JAR, Female GU, Placenta): 3170 nM
- IC50 (72 h, JAR, Female GU, Placenta): 3210 nM
- GI50 (72 h, KLE, Female GU, Uterus): > 10000 nM
- IC50 (72 h, KLE, Female GU, Uterus): > 10000 nM
- GI50 (72 h, PA1, Female GU, Ovary): 471 nM
- IC50 (72 h, PA1, Female GU, Ovary): 2620 nM
- GI50 (72 h, PC3, Prostate): 7820 nM
- IC50 (72 h, PC3, Prostate): 8540 nM
- GI50 (72 h, RD, Soft Tissue, Sarcoma): 36.7 nM
- IC50 (72 h, RD, Soft Tissue, Sarcoma): 44.3 nM
- GI50 (72 h, SKPNDW, Stomach): 3600 nM
- IC50 (72 h, SKPNDW, Stomach): > 10000 nM
- GI50 [7]: 1090 nM
- IC50 [7]: > 10000 nM
- GI50 (72 h, TT, Endocrine, Thyroid): 86.3 nM
- IC50 (72 h, TT, Endocrine, Thyroid): > 10000 nM
- GI50 [8]: 13.3 nM
- IC50 [8]: 109 nM
- GI50 [9]: 336 nM
- IC50 [9]: 580 nM
- GI50 (A7 (Skin, Melanoma)): 1720 nM
- IC50 (A7 (Skin, Melanoma)): 7270 nM
- GI50 (A388 (Head and Neck)): 422 nM
- IC50 (A388 (Head and Neck)): 1120 nM
- GI50 [10]: > 10000 nM
- IC50 [10]: > 10000 nM
- GI50 [11]: 20.5 nM
- IC50 [11]: 79.7 nM
- GI50 [12]: 141 nM
- IC50 [12]: 401 nM
- GI50 (C4I (Female GU, Cervix)): > 10000 nM
- IC50 (C4I (Female GU, Cervix)): > 10000 nM
- GI50 (C32 (Skin, Melanoma)): 28.9 nM
- IC50 (C32 (Skin, Melanoma)): 111 nM
- GI50 (C32TG, C32TG (Skin, Melanoma)): 40.8 nM
- IC50 (C32TG, C32TG (Skin, Melanoma)): 109 nM
- GI50 [13]: > 10000 nM
- IC50 [13]: > 10000 nM
- GI50 [14]: 149 nM
- IC50 [14]: > 10000 nM
- GI50 [15]: 10000 nM
- IC50 [15]: 21.9 nM
- GI50 [16]: 13.1 nM
- IC50 [16]: > 10000 nM
- GI50 (DKMG (CNS, Glioma)): 20.7 nM
- IC50 (DKMG (CNS, Glioma)): 126 nM
- GI50 [17]: 389 nM
- IC50 [17]: 550 nM
- GI50 [18]: 1630 nM
- IC50 [18]: 2150 nM
- GI50 [19]: 48.1 nM
- IC50 [19]: 93.6 nM
- GI50 (H4 (CNS, Glioma)): 758 nM
- IC50 (H4 (CNS, Glioma)): 943 nM
- GI50 [20]: 23.2 nM
- IC50 [20]: 39 nM
- GI50 (HLE (Liver)): 683 nM
- IC50 (HLE (Liver)): 1040 nM
- GI50 (HLF (Liver)): 4760 nM
- IC50 (HLF (Liver)): 6470 nM
- GI50 [21]: 10.6 nM
- IC50 [21]: 12.3 nM
- GI50 (HS688AT (Skin, Melanoma)): 82.2 nM
- IC50 (HS688AT (Skin, Melanoma)): > 10000 nM
- GI50 (HS852T (Skin, Melanoma)): 56.4 nM
- IC50 (HS852T (Skin, Melanoma)): 715 nM
- GI50 (HS895T (Skin, Melanoma)): > 10000 nM
- IC50 (HS895T (Skin, Melanoma)): > 10000 nM
- GI50 (HS934T (Skin, Melanoma)): 5.2 nM
- IC50 (HS934T (Skin, Melanoma)): > 10000 nM
- GI50 (HS936TC1 (Skin, Melanoma)): 18.4 nM
- IC50 (HS936TC1 (Skin, Melanoma)): 25.8 nM
- GI50 (HT3 (Female GU, Cervix)): 856 nM
- IC50 (HT3 (Female GU, Cervix)): 3210 nM
- GI50 [22]: 8300 nM
- IC50 [22]: > 10000 nM
- GI50 [23]: 145 nM
- IC50 [23]: 354 nM
- GI50 [24]: 2660 nM
- IC50 [24]: 5580 nM
- GI50 [25]: 184 nM
- IC50 [25]: 206 nM
- GI50 [26]: 6930 nM
- IC50 [26]: 7820 nM
- GI50 [27]: 194 nM
- IC50 [27]: 255 nM
- GI50 [28]: 2040 nM
- IC50 [28]: 6920 nM
- GI50 [29]: 42.4 nM
- IC50 [29]: 81.5 nM
- GI50 [30]: 64.9 nM
- IC50 [30]: 139 nM
- GI50 [31]: > 10000 nM
- IC50 [31]: > 10000 nM
- GI50 [32]: 171 nM
- IC50 [32]: > 10000 nM
- GI50 [33]: 522 nM
- IC50 [33]: 808 nM
- GI50 [34]: 102 nM
- IC50 [34]: 128 nM
- GI50 [35]: 3750 nM
- IC50 [35]: 3870 nM
- GI50 [36]: > 10000 nM
- IC50 [36]: > 10000 nM
- GI50 [37]: 212 nM
- IC50 [37]: 288 nM
- GI50 [38]: 6.5 nM
- IC50 [38]: 7.2 nM
- GI50 [39]: 47.5 nM
- IC50 [39]: 76.3 nM
- GI50 [40]: 228 nM
- IC50 [40]: 311 nM
- GI50 [41]: 306 nM
- IC50 [41]: 550 nM
- GI50 [42]: 713 nM
- IC50 [42]: 7030 nM
- GI50 [43]: > 10000 nM
- IC50 [43]: > 10000 nM
- GI50 [44]: 30.8 nM
- IC50 [44]: > 10000 nM
- GI50 [45]: 8150 nM
- IC50 [45]: 8770 nM
- GI50 [46]: 146 nM
- IC50 [46]: 210 nM
- GI50 [47]: 51.5 nM
- IC50 [47]: 54.6 nM
- GI50 [48]: 37.6 nM
- IC50 [48]: 41.2 nM
- GI50 [49]: 57.8 nM
- IC50 [49]: 67.5 nM
- GI50 [50]: 8360 nM
- IC50 [50]: > 10000 nM
